In ChEMBL document CHEMBL4507291 (2021):

How the values were obtained:
[1] = system: Mast/stem cell growth factor receptor Kit (Homo sapiens), P10721 [V559D,V654A]
[2] = target: Serine/threonine-protein kinase PAK 5 (Homo sapiens) (UniProt Q9P286)
[3] = target: Cyclin-dependent kinase 19 (Homo sapiens) (UniProt Q9BWU1)
[4] = target: Tyrosine-protein kinase ABL2 (Homo sapiens) (UniProt P42684)
[5] = target: T1, 5-hydroxytryptamine receptor 3A (Homo sapiens) (UniProt P46098); conditions: Compound concentration 10.0 uM
T1 sequence (whole entry): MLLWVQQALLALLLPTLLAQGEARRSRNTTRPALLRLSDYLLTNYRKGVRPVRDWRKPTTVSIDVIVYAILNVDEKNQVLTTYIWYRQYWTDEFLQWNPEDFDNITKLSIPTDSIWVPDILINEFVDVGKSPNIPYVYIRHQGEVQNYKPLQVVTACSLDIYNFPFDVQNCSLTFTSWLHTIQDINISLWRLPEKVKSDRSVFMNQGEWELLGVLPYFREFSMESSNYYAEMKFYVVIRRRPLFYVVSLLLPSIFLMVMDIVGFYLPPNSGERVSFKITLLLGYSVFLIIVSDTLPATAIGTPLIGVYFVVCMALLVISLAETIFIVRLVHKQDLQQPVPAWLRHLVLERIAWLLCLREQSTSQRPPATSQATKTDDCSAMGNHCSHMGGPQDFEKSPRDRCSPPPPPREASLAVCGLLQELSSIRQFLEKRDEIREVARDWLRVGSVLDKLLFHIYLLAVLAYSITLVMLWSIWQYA

[6] = target: Calcium/calmodulin-dependent protein kinase type 1D (Homo sapiens) (UniProt Q8IU85)
Chain of Calcium/calmodulin-dependent protein kinase type 1D (Homo sapiens) (Q8IU85 whole entry, looked up): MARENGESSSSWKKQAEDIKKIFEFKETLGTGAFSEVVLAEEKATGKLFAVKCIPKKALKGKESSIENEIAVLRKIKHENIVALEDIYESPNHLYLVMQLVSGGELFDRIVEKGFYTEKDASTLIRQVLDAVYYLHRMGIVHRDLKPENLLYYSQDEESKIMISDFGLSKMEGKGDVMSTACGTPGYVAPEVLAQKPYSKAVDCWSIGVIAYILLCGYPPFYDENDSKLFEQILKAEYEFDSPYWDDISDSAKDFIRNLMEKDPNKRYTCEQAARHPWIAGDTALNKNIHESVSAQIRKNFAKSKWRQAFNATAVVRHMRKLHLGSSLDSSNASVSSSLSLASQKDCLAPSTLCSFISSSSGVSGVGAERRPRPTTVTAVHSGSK

[7] = target: Serine/threonine-protein kinase MRCK alpha (Homo sapiens) (UniProt Q5VT25)
[8] = target: Serine/threonine-protein kinase Chk2 (Homo sapiens) (UniProt O96017)
Chain of Serine/threonine-protein kinase Chk2 (Homo sapiens) (O96017 whole entry): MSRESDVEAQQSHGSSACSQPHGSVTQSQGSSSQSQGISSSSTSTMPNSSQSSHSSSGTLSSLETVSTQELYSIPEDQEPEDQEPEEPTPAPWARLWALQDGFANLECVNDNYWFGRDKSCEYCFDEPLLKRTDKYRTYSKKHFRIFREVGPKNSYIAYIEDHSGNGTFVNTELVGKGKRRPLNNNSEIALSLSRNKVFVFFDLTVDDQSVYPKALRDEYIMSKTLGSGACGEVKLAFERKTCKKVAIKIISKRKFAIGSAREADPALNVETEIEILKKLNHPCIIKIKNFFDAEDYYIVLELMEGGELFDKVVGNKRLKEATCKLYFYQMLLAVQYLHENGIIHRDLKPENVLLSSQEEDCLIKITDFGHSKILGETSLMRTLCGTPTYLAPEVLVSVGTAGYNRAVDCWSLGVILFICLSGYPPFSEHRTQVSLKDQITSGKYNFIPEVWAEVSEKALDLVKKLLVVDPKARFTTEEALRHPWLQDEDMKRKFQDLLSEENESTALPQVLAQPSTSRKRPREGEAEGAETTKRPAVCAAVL

[9] = target: Mitogen-activated protein kinase kinase kinase 20 (Homo sapiens) (UniProt Q9NYL2)
[10] = target: Peripheral plasma membrane protein CASK (Homo sapiens) (UniProt O14936)
Chain of Peripheral plasma membrane protein CASK (Homo sapiens) (O14936 whole entry): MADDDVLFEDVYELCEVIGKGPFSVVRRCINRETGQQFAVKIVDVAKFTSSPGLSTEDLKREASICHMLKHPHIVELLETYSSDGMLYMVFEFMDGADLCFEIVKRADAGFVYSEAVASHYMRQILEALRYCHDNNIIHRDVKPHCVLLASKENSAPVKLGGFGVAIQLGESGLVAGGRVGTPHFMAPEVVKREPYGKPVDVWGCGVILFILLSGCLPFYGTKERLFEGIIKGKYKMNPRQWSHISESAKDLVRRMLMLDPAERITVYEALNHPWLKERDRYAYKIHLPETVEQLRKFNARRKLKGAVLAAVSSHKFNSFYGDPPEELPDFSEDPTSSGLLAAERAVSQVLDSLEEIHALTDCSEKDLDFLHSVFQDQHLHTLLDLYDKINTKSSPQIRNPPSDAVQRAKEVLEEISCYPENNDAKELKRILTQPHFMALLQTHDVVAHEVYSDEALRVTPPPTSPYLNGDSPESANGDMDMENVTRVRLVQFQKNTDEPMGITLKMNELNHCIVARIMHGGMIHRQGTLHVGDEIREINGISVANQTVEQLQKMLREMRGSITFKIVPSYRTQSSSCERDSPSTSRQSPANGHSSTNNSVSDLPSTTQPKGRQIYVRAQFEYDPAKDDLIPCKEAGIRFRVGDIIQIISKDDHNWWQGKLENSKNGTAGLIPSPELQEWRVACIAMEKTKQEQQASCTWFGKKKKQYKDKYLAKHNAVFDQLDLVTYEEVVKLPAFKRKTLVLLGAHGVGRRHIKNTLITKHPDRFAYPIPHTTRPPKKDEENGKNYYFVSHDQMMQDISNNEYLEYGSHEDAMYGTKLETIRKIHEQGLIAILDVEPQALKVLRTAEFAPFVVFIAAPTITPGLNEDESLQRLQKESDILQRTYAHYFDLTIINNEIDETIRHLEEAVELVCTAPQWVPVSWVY

[11] = target: T2, G protein-coupled receptor kinase 3 (Homo sapiens) (UniProt P35626)
T2 sequence (whole entry): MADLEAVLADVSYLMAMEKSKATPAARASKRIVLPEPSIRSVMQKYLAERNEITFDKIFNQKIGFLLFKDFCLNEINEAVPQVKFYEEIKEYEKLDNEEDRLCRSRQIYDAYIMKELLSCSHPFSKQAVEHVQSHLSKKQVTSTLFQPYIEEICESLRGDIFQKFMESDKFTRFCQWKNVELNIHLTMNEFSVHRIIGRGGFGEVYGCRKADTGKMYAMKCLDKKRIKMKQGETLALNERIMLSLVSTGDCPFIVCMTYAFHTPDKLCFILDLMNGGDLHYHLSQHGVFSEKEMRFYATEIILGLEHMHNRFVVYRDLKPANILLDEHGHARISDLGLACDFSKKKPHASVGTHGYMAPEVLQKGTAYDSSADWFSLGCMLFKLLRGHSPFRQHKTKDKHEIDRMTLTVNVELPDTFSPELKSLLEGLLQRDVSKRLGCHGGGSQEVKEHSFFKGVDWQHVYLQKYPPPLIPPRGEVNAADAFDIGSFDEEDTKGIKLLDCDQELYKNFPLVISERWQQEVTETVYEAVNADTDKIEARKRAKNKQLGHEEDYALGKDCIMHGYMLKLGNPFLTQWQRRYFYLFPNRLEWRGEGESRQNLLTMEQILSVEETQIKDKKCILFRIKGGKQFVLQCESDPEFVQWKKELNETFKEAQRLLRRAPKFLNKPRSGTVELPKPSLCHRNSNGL

[12] = target: Myosin light chain kinase 2, skeletal/cardiac muscle (Homo sapiens) (UniProt Q9H1R3)
Chain of Myosin light chain kinase 2, skeletal/cardiac muscle (Homo sapiens) (Q9H1R3 whole entry): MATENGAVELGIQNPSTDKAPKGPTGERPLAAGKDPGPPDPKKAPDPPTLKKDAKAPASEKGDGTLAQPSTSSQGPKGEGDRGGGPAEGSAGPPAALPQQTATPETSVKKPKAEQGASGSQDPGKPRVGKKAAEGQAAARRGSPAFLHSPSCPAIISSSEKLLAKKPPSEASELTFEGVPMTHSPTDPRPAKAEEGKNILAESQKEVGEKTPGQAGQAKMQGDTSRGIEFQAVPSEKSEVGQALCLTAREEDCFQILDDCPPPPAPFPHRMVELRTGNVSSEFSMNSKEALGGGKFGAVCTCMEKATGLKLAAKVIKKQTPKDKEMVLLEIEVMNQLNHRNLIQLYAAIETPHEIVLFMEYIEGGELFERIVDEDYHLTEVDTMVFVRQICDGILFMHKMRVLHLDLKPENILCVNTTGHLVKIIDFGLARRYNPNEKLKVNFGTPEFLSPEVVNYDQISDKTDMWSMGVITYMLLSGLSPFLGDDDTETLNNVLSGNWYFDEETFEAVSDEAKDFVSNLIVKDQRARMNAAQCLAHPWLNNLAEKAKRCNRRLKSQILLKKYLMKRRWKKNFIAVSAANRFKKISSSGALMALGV

[13] = target: SRSF protein kinase 1 (Homo sapiens) (UniProt Q96SB4)
[14] = target: Calcium/calmodulin-dependent protein kinase type II subunit beta (Homo sapiens) (UniProt Q13554)
[15] = target: Non-receptor tyrosine-protein kinase TNK1 (Homo sapiens) (UniProt Q13470)
[16] = target: Phosphatidylinositol 3-kinase C2 domain-containing subunit gamma (Homo sapiens) (UniProt O75747)
Chain of Phosphatidylinositol 3-kinase C2 domain-containing subunit gamma (Homo sapiens) (O75747 whole entry, the tested form may be a part): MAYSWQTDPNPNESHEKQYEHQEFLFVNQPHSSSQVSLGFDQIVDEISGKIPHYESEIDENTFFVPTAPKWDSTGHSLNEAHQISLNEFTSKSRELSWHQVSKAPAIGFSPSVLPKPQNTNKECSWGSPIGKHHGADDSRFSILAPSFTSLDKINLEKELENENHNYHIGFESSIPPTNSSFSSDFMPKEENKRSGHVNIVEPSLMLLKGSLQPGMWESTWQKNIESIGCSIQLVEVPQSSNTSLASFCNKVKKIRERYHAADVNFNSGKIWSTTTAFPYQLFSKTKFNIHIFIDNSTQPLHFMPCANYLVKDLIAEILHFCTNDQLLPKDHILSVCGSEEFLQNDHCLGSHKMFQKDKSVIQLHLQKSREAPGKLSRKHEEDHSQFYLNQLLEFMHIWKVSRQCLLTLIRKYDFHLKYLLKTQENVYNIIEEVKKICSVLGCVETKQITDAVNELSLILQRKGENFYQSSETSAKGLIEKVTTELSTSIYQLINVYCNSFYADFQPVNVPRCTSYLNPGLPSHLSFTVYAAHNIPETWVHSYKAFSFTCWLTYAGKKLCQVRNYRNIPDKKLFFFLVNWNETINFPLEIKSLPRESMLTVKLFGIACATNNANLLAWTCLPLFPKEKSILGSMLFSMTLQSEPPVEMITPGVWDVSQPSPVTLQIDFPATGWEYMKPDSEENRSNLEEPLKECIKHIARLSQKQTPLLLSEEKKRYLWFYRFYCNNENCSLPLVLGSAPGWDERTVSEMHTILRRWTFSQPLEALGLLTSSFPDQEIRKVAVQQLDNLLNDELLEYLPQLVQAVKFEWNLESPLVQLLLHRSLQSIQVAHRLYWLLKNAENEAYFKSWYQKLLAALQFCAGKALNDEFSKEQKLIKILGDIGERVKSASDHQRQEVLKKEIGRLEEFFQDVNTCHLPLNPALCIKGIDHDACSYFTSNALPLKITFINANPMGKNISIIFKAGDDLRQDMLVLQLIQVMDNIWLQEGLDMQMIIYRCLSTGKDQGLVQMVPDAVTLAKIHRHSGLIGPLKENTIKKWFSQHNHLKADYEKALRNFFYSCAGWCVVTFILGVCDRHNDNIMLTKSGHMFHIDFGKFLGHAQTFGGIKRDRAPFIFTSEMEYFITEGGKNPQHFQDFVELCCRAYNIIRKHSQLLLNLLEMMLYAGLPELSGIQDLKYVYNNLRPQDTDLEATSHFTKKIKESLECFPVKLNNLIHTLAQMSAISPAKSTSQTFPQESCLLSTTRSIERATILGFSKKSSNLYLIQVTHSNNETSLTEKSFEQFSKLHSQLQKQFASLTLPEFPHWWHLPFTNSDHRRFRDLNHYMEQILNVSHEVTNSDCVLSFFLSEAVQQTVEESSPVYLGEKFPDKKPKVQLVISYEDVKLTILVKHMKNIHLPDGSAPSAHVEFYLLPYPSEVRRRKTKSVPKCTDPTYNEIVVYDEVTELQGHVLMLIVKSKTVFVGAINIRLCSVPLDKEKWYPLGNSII

[17] = target: AP2-associated protein kinase 1 (Homo sapiens) (UniProt Q2M2I8)
[18] = system: Mast/stem cell growth factor receptor Kit (Homo sapiens), P10721 [V559D,T670I]
Chain of Mast/stem cell growth factor receptor Kit (Homo sapiens), P10721 [V559D,T670I] (P10721 whole entry V559D/T670I): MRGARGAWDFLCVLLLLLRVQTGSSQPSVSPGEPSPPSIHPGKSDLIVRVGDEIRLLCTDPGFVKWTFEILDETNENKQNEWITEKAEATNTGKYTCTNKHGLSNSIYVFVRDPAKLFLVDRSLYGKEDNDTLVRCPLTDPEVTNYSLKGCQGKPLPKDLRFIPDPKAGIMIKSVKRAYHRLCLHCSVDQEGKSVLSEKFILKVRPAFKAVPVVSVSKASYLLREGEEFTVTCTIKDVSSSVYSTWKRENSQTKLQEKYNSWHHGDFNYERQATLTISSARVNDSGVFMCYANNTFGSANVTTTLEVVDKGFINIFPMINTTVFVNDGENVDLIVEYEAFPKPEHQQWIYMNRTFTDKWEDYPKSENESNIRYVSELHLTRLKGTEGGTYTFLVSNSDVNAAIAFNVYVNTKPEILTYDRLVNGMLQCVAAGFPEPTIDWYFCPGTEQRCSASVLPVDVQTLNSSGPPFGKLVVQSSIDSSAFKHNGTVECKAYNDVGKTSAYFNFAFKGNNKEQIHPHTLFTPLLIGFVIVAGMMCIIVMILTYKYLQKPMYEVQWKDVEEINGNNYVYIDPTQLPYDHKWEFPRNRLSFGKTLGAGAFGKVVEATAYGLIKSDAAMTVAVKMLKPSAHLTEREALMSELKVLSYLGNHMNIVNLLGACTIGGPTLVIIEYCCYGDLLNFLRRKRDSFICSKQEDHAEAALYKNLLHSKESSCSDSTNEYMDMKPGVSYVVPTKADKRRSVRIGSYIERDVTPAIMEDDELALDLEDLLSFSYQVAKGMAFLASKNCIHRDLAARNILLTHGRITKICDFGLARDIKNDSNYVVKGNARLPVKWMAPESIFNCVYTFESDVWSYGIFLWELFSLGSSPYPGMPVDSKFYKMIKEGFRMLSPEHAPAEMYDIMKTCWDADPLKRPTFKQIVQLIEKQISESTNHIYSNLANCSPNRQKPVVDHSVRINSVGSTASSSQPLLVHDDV

[19] = target: Receptor tyrosine-protein kinase erbB-2 (Homo sapiens) (UniProt P04626)
[20] = Compound concentration 1000.0 nM
[21] = Compound concentration 100.0 nM

Chain of Mast/stem cell growth factor receptor Kit (Homo sapiens), P10721 [V559D,V654A] (P10721 whole entry V559D/V654A): as the sequence (P10721 whole entry V559D/T670I) above, with V654A, I670T counted along it

C[C@@H]1CN(c2cc(-c3nn(C)c4ccc(OC5(C)CC5)cc34)ncn2)C[C@H](C)O1 [MLi-2-NC]
inactive: residual activity [1, 20] 100% | residual activity [2, 20] 84% | residual activity [3, 20] 92% | residual activity [4, 20] 100% | inhibition [5] -3.11% | residual activity [6, 20] 100% | residual activity [7, 20] 89% | residual activity [8, 20] 97% | residual activity [9, 20] 100% | residual activity [10, 20] 93% | residual activity [11, 20] 69% | residual activity [12, 20] 87% | residual activity [13, 20] 88% | residual activity [14, 20] 96% | residual activity [15, 20] 95% | residual activity [16, 20] 100% | residual activity [17, 20] 84% | residual activity [18, 20] 100% | residual activity [19, 20] 80%

C[C@@H]1CN(c2cc(-c3n[nH]c4ccc(OC5(C)CC5)cc34)ncn2)C[C@H](C)O1 [MLi-2]
inactive: residual activity [1, 21] 100% | residual activity [2, 21] 86% | residual activity [3, 21] 70% | residual activity [4, 21] 73% | inhibition [5] 4.35% | residual activity [6, 21] 100% | residual activity [7, 21] 90% | residual activity [8, 21] 68% | residual activity [9, 21] 92% | residual activity [10, 21] 59% | residual activity [11, 21] 91% | residual activity [12, 21] 91% | residual activity [13, 21] 100% | residual activity [14, 21] 100% | residual activity [15, 21] 76% | residual activity [16, 21] 69% | residual activity [17, 21] 100% | residual activity [18, 21] 95% | residual activity [19, 21] 77%
